Tests used:
[1] = target: T1, Phe-176 mutant p53 protein (Homo sapiens, UniProt P04637, C176F); experiment: Band shift assay, KRC/Y cells; format: biochemical
T1 construct: as a source for endogenous p53 protein; endogenous in cells; host or cells: KRC/Y renal carcinoma cells (cell extract)
Experimental: (§1) The GST-p53 proteins were prepared as described (Selivanova et al., 1997). Band shift assays were performed in binding buffer containing 100 mM HEPES pH 7.5, 50 mM KCl , 1 mg/ml BSA, 0.1% Triton X-100, 2 mM MgCl2 and 1 mM DTT essentially as in (Selivanova et al., 1996).

Saos-2 cells lacking p53 = experiment: Colony formation assay; format: cell-based, human; settings: 5 µM of compound; colonies after 14 days
Text: Colonies were stained with Giemsa and counted 14 days after seeding.
The cells were Giemsa stained and scored for the appearance of colonies after 14 days.

[2] = target: T2, GST-His-175 mutant p53 protein (Homo sapiens, UniProt P04637, R175H); experiment: Band shift assay; format: biochemical
T2 construct: made in house
Experimental: FIG. 7A Lane 1-3, GST-His-175 mutant p53 is unable to bind DNA. […] PAb421 antibody was added to all reaction mixtures. […] Monoclonal antibody PAb421 was added to the reaction mixtures in lanes 2-8; PAb1801 was, added to the reaction mixtures in lanes 9-15.
as §1
Substitution of arginin at position 175 causes a gross unfolding of the DNA binding core domain of p53.

[3] = tested on: A431 cells that carry endogenous His-273 mutant p53; experiment: p53-responsive lacZ reporter; format: cell-based; settings: 50 μM for 20 hours

| Structure (SMILES) | restoration of specific DNA binding [1] | inhibition of colony formation (Saos-2 cells lacking p53) [%] | restoration of specific DNA binding [2] | lacZ reporter induction [3] |
| --- | --- | --- | --- | --- |
| CCC(=O)OCN1C(=O)C=CC1=O [MIRA-1] | not capable of restoring | 48 | able to restore | – |
| O=C1C2CCN(CC2)C1(CO)CO [PRIMA-1, 2,2-bis(hydroxymethyl)-1-azabicyclo[2,2,2]octan-3-one] | – | – | – | appearance of lacZ-positive cells |

From patent US7348330B2, “1-azabicyclo [2,2,2] octan-3-one derivatives” (Aprea AB, priority 2000, dated 2008)
